Laboratory results: patent publication US8916565B2, “Pyrrolopyrazine-spirocyclic piperidine amides as modulators of ion channels” (priority 2011, dated 2014)

target: human NaV subtype, like NaV 1.7 (Homo sapiens, UniProt Q15858); experiment: E-VIPR optical membrane potential assay with electrical stimulation; assay type: cell-based; conditions: active against one or more sodium channels; Table 3 does not name the assay or NaV subtype; read-out: Binned Activity Data (IC50)
Sequence (Q15858 whole entry): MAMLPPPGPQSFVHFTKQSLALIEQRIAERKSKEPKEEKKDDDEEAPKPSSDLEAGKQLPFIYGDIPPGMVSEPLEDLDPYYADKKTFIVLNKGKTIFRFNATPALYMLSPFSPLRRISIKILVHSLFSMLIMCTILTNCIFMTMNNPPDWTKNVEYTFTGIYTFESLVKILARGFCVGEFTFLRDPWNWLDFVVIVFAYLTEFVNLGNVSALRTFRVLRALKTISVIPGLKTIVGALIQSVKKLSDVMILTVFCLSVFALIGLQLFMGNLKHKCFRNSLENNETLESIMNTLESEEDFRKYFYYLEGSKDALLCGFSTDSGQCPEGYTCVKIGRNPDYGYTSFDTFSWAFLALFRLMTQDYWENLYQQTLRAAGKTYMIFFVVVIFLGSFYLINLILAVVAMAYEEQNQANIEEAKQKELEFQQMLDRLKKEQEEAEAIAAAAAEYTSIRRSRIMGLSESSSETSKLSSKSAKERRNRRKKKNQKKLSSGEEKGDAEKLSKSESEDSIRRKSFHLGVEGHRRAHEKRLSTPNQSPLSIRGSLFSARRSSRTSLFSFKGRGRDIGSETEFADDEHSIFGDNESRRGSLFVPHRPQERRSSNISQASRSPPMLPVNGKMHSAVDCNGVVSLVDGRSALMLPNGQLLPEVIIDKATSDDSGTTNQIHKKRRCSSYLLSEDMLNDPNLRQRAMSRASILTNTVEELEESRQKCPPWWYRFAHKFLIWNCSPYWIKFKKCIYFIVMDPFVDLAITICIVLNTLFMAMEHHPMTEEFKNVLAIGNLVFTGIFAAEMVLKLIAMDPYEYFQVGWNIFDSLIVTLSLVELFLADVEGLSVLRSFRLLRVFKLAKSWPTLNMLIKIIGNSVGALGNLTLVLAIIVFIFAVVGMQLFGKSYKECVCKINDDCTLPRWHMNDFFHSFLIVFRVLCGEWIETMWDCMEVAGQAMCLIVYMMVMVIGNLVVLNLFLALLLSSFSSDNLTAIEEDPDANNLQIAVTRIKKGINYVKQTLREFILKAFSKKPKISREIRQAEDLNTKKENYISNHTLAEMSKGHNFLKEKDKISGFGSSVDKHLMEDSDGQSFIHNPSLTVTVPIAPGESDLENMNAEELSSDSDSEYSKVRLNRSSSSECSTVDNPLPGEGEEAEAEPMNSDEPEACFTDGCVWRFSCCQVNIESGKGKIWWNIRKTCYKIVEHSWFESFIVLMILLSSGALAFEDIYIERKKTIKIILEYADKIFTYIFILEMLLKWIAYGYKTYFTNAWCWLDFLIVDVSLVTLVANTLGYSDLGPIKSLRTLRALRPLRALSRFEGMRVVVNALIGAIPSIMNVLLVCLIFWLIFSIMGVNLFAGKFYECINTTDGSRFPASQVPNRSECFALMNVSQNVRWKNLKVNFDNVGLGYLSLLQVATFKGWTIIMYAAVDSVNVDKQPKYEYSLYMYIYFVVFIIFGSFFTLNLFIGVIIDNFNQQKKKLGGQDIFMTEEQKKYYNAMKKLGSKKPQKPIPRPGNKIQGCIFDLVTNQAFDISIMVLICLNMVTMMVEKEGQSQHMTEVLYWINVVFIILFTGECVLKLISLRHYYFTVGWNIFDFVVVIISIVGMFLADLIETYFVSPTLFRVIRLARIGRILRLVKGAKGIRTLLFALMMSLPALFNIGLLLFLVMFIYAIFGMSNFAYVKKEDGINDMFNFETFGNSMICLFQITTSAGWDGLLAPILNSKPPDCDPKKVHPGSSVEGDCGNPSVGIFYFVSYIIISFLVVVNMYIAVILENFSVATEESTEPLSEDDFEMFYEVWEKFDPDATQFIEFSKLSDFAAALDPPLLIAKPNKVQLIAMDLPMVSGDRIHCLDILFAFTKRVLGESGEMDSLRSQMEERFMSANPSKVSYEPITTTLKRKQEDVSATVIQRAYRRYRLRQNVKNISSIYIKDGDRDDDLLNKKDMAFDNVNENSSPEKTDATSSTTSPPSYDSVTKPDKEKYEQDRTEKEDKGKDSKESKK

Row | IC50 | SMILES
1 | ≤ 2000 nM | CC(=O)c1ccc2n1CC(C)(C)NC21CCN(C(=O)c2ccc(OC(C)C)c(Cl)c2)CC1 [Compound 277]
2 | > 5000 nM | CC(=O)c1ccc2n1CCN(C)C21CCN(C(=O)c2ccc(C(C)C)cc2)CC1 [Compound 519]
3 | > 5000 nM | CN1CCn2c(Cl)ccc2C12CCN(C(=O)c1ccc(S(=O)(=O)C(F)F)cc1)CC2 [Compound 670]
4 | ≤ 2000 nM | COc1cc(C(=O)N2CC[C@]3(c4ccc(C(F)(F)F)n4CCN3C)[C@H](F)C2)ccc1OC(C)C [Compound 105]
5 | ≤ 2000 nM | COCCN1CCn2c(C(F)(F)F)ccc2C12CCN(C(=O)c1ccc(OC(C)C)c(OC)c1)CC2 [Compound 186]
6 | ≤ 2000 nM | COC(=O)N1CCn2c(C(F)(F)F)ccc2C12CCN(C(=O)c1ccc(C(C)(C)O)c(C)c1)CC2 [Compound 683]
7 | ≤ 2000 nM | CN1CCn2c(Cl)ccc2C12CCN(C(=O)c1ccc(C3CCCCC3)cc1)CC2 [Compound 626]
8 | > 5000 nM | Cc1cc(C(=O)N2CCC3(CC2)c2cc(C(=O)C(F)(F)F)cn2C(C)(C)CN3C)ccc1OC(C)C [Compound 231]
9 | > 5000 nM | CC(=O)c1ccc2n1CCN(C)C21CCN(C(=O)c2cccc3cccnc23)CC1 [Compound 472]
10 | ≤ 2000 nM | Cc1cc(C(=O)N2CCC3(CC2)c2ccc(C(F)(F)C(F)(F)F)n2CCN3C)ccc1S(=O)(=O)C(C)C [Compound 326]
11 | ≤ 2000 nM | CC(=O)c1ccc2n1CC(C)(C)NC21CCN(C(=O)c2ccc(OC(C)C)c(C)c2)CC1 [Compound 418]
12 | ≤ 2000 nM | CC(C)Oc1ccc(C(=O)N2CCC3(CC2)NCCn2c(C(F)(F)F)ccc23)c(F)c1 [Compound 367]
13 | ≤ 2000 nM | C[C@H]1Cn2c(C(=O)C(F)(F)F)ccc2C2(CCN(C(=O)c3ccc(S(=O)(=O)C(C)(C)C)cc3)CC2)N1C [Compound 300]
14 | > 5000 nM | O=C(c1ccnc2ccccc12)N1CCC2(CC1)NCCn1c(C(F)(F)F)ccc12 [Compound 527]
15 | ≤ 2000 nM | COc1cc(C(=O)N2CCC3(CC2)c2ccc(C(=O)C(F)(F)F)n2CCN3C)ccc1COCC(F)(F)F [Compound 17]
16 | 2000 to 5000 nM | CC(=O)c1ccc2n1CCN(C)C21CCN(C(=O)c2ccc(OCC(C)(C)O)c(C)c2)CC1 [Compound 681]
17 | ≤ 2000 nM | CC(C)Oc1ccc(C(=O)N2CCC3(CC2)c2ccc(C(=O)C(C)(C)C)n2CCN3C)cc1C(F)(F)F [Compound 617]
18 | > 5000 nM | Cc1cc(C(=O)N2CCC3(CC2)c2cccn2CCN3C)ccc1OC(C)C [Compound 430]
19 | ≤ 2000 nM | CC(C)Oc1ccc(C(=O)N2CCC3(CC2)c2ccc(C(=O)C(F)(F)F)n2C[C@@H](C)N3C)c(F)c1 [Compound 564]
20 | ≤ 2000 nM | CN1CCn2c(C(F)(F)F)cc(F)c2C12CCN(C(=O)c1ccc(C3(O)CCC3)c(F)c1)CC2 [Compound 112]
21 | > 5000 nM | COc1cc(C(=O)N2CCC3(CC2)c2ccc(C(F)(F)F)n2CCN3C)ccc1OCCO [Compound 440]
22 | ≤ 2000 nM | COCCOc1ccc(C(=O)N2CCC3(CC2)c2ccc(C(F)(F)C(F)(F)F)n2CCN3C)cc1OC [Compound 245]
23 | 2000 to 5000 nM | CC(C)S(=O)(=O)c1ccc(C(=O)N2CCC3(CC2)c2ccc(C(=O)C(C)(C)C)n2CCN3C)cc1 [Compound 176]
24 | ≤ 2000 nM | CN1CCn2c(C(F)(F)F)ccc2C12CCN(C(=O)c1ccccc1Oc1ccccc1)CC2 [Compound 27]
25 | ≤ 2000 nM | CC(C)CCOc1ccc(C(=O)N2CCC3(CC2)NC(C)(C)Cn2c(C(=O)C(F)(F)F)ccc23)cc1 [Compound 409]

Row | IC50 | SMILES
26 | ≤ 2000 nM | CCCCOc1cc(C(=O)N2CCC3(CC2)c2ccc(C(=O)C(F)(F)F)n2CCN3C)ccc1OC [Compound 115]
27 | ≤ 2000 nM | CC(C)Oc1ccc(C(=O)N2CCC3(CC2)c2ccc(C(=O)C(F)(F)F)n2C[C@H](C)N3C)c(F)c1 [Compound 695]
28 | ≤ 2000 nM | COc1cc(C(=O)N2CCC3(CC2)c2ccc(C(F)(F)F)n2CCN3C)ccc1C(C)(C)O [Compound 213]
29 | 2000 to 5000 nM | COc1cc(C(=O)N2CCC3(CC2)c2ccc(C(=O)N4CCC(C(C)C)CC4)n2CCN3C)ccc1OC(C)C [Compound 622]
30 | > 5000 nM | Cc1cc(C(=O)N2CCC3(CC2)c2ccc(C(F)(F)F)n2CCN3C(=O)N(C)C)ccc1C(C)(C)O [Compound 634]
31 | ≤ 2000 nM | Cc1cc(C(=O)N2CCC3(CC2)c2ccc(C(=O)C4CC4)n2CCN3C)ccc1O [Compound 476]
32 | ≤ 2000 nM | Cc1cc(C(=O)N2CCC3(CC2)c2ccc(C(=O)C(C)C)n2CCN3C)ccc1O [Compound 140]
33 | ≤ 2000 nM | COc1ccc(C(=O)N2CCC3(CC2)c2ccc(C(=O)C(C)C)n2CCN3C)cc1C(F)(F)F [Compound 735]
34 | 2000 to 5000 nM | CN1CCn2c(C(=O)C(F)(F)F)ccc2C12CCN(C(=O)c1ccc(Oc3ccccc3)cc1)CC2 [Compound 402]
35 | > 5000 nM | CN1CCn2c(C(F)(F)F)ccc2C12CCN(C(=O)c1ccc(Oc3ccccc3)cc1)CC2 [Compound 155]
36 | 2000 to 5000 nM | COc1ccccc1C(=O)N1CCC2(CC1)c1ccc(C(F)(F)F)n1CCN2C [Compound 99]
37 | ≤ 2000 nM | CC(C)Oc1ccc(C(=O)N2CCC3(CC2)NCCn2c(C(F)(F)F)ccc23)cc1Cl [Compound 135]
38 | ≤ 2000 nM | CC[C@H](C)Oc1ccc(C(=O)N2CCC3(CC2)c2ccc(C(F)(F)C(F)(F)F)n2CCN3C)cc1OC [Compound 385]
39 | ≤ 2000 nM | CN1CCn2c(C(F)(F)F)ccc2C12CCN(C(=O)c1ccc(C(C)(C)O)c(F)c1)CC2 [Compound 370]
40 | > 5000 nM | CN1CCn2c(C(F)(F)F)ccc2C12CCN(C(=O)c1ccc(Cl)cc1)CC2 [Compound 403]
41 | ≤ 2000 nM | CN1CCn2c(C(F)(F)F)ccc2C12CCN(C(=O)c1cccc3cccnc13)CC2 [Compound 281]
42 | ≤ 2000 nM | Cc1cc(C(=O)N2CCC3(CC2)c2ccc(C(F)(F)F)n2CCN3CC(=O)N(C)C)ccc1OC(C)C [Compound 723]
43 | ≤ 2000 nM | COc1ccc(C(=O)N2CCC3(CC2)c2ccc(C(=O)C4(C)CC4)n2CCN3C)cc1C [Compound 276]
44 | ≤ 2000 nM | O=C(c1ccc(S(=O)(=O)NC2CC2)cc1)N1CCC2(CC1)c1ccc(C(F)(F)F)n1CCN2C1CC1 [Compound 708]
45 | ≤ 2000 nM | COc1ccc(C(=O)N2CCC3(CC2)NC(C)(C)Cn2c(C(=O)C(F)(F)F)ccc23)cc1C(F)(F)F [Compound 377]
46 | ≤ 2000 nM | CN1CCn2c(C(=O)C(F)(F)F)ccc2C12CCN(C(=O)c1ccc(C3CCCCC3)cc1)CC2 [Compound 101]
47 | > 5000 nM | CCCOc1cc(C(=O)N2CCC3(CC2)c2ccc(C(C)=O)n2CCN3C)ccc1OC [Compound 606]
48 | 2000 to 5000 nM | CCC(C)(C)c1ccc(C(=O)N2CCC3(CC2)c2ccc(C(=O)C(F)(F)F)n2CCN3C)cc1 [Compound 54]
49 | ≤ 2000 nM | COc1cc(C(=O)N2CCC3(CC2)c2c(Cl)cc(C(F)(F)F)n2CCN3C)ccc1COCC(F)(F)F [Compound 687]
50 | 2000 to 5000 nM | COc1cc(C(=O)N2CCC3(CC2)c2c(C#N)cc(C(F)(F)F)n2CCN3C)ccc1OC(C)C [Compound 742]

Row | IC50 | SMILES
51 | ≤ 2000 nM | CCC(=O)c1ccc2n1CCN(C)C21CCN(C(=O)c2ccc(OC(C)C)c(Cl)c2)CC1 [Compound 107]
52 | ≤ 2000 nM | CN1CCn2c(ccc2C(F)(F)C(F)(F)F)C12CCN(C(=O)c1ccc(S(=O)(=O)C(C)(C)C)cc1)CC2 [Compound 464]
53 | ≤ 2000 nM | CC(C)c1ccc(C(=O)N2CCC3(CC2)c2ccc(C(=O)C(F)(F)F)n2CCN3C)cc1 [Compound 290]
54 | ≤ 2000 nM | Cc1cc(C(=O)N2CC[C@]3(c4ccc(C(F)(F)F)n4CCN3C)[C@H](F)C2)ccc1OC(C)C [Compound 475]
55 | ≤ 2000 nM | CN1CCn2c(C(=O)C3(C)CC3)ccc2C12CCN(C(=O)c1ccc(S(=O)(=O)C(F)(F)F)cc1)CC2 [Compound 644]
56 | ≤ 2000 nM | Cc1cc(S(=O)(=O)C(C)C)ccc1C(=O)N1CCC2(CC1)c1ccc(C(F)(F)F)n1CCN2C [Compound 498]
57 | ≤ 2000 nM | COc1ccc(C(=O)N2CCC3(CC2)c2ccc(C(=O)C(F)(F)F)n2C(C)CN3C)cc1C(F)(F)F (stereo not shown) [Compound 240]
58 | ≤ 2000 nM | CN1CCn2c(C(F)(F)F)cc(F)c2C12CCN(C(=O)c1ccc(C(C)(C)O)c(F)c1)CC2 [Compound 616]
59 | ≤ 2000 nM | COc1cc(C(=O)N2CCC3(CC2)c2ccc(C(=O)C(F)(F)F)n2CCN3C)ccc1COCCC(F)(F)F [Compound 288]
60 | ≤ 2000 nM | COc1ccc(C(=O)N2CCC3(CC2)c2ccc(C(=O)C(C)(C)C)n2CCN3C)cc1C(F)(F)F [Compound 566]
61 | > 5000 nM | COc1ccc(C(=O)N2CCC3(CC2)NC(C)(C)Cn2c(C(C)=O)ccc23)cc1C [Compound 613]
62 | ≤ 2000 nM | CCOc1cc(C(=O)N2CCC3(CC2)c2ccc(C(F)(F)F)n2CCN3C)ccc1CO [Compound 579]
63 | ≤ 2000 nM | COc1ccc(C(=O)N2CCC3(CC2)c2ccc(C(=O)C(C)(C)C)n2CCN3C)cc1C [Compound 314]
64 | ≤ 2000 nM | COc1ccc(C(=O)N2CCC3(CC2)c2ccc(C(=O)C(F)(F)F)n2C[C@H](C)N3C)cc1C [Compound 14]
65 | ≤ 2000 nM | CC(C)Oc1ccc(C(=O)N2CCC3(CC2)c2ccc(C(=O)C(C)C)n2CCN3C)cc1Cl [Compound 674]
66 | > 5000 nM | Cc1cc(C(=O)N2CCC3(CC2)c2cc(C(=O)C(F)(F)F)cn2C(C)(C)CN3C)ccc1C(C)(C)O [Compound 421]
67 | ≤ 2000 nM | CC(C)Oc1ccc(C(=O)N2CCC3(CC2)c2ccc(C(=O)C(F)(F)F)n2C(C)CN3C)cc1Cl (stereo not shown) [Compound 325]
68 | ≤ 2000 nM | CC(C)Oc1ccc(C(=O)N2CCC3(CC2)c2ccc(C(F)(F)C(F)(F)F)n2CCN3C)cc1Cl [Compound 664]
69 | > 5000 nM | CC(=O)c1ccc2n1CCN(C)C21CCN(C(=O)c2ccc(COCC(F)(F)F)cc2)CC1 [Compound 447]
70 | 2000 to 5000 nM | COc1cc(C(=O)N2CCC3(CC2)c2ccc(C(F)(F)F)n2CCN3C2CCC2)ccc1OC(C)C [Compound 317]
71 | ≤ 2000 nM | CC(C)Oc1ccc(C(=O)N2CCC3(CC2)c2ccc(C(=O)C4CC4)n2CCN3C)cc1F [Compound 744]
72 | 2000 to 5000 nM | CCCN(CCC)S(=O)(=O)c1ccc(C(=O)N2CCC3(CC2)c2ccc(C(C)=O)n2CCN3C)cc1 [Compound 94]
73 | ≤ 2000 nM | CC(=O)c1ccc2n1CCN(C)C21CCN(C(=O)c2ccc(OCCC(C)C)cc2)CC1 [Compound 219]
